{"source": "patent US20100093861A1", "about": "“TREATMENT OF INSULIN RESISTANCE OR DISEASES ASSOCIATED WITH INSULIN RESISTANCE” (Stevia ApS, priority 2006, published 2010)", "key": {"KKAy-mice": {"system": "KKAy-mice", "assay": "In vivo study of plasma insulin, glucose, triglycerides and body weight in KKAy-mice after isosteviol (Example 3)", "description": "Twenty six male KKAy-mice (Clea Japan, Tokyo, Japan), all 5 week-old, weighing 22-25 g were randomized to 2 groups and treated for 9 weeks with; • A: standard chow diet (control); • B: standard chow diet+20 mg/kg BW of Isosteviol (hereinafter ISV).\nThe composition of the standard chow diet dry matter was: Protein 24%, carbohydrate 71%, and Lipids 5%. ISV (ent-16-ketobeyeran-19-oic acid; Wako Pure Chemical Industries, Osaka, Japan) was incorporated in the mice food pellet and administered orally.\nHormones and lipids were measured from blood sample at start and end of the treatment period. Blood sample was taken from the tail of the animals on chilled tubes containing heparin/aprotinin and centrifuged (4000 g, 60 seconds, […]), and plasma was frozen for subsequent analysis of insulin, glucose and triglycerides. Fasting blood glucose, as well as BW, was measured before and after intervention.\nPlasma blood glucose was determined using the glucose oxidase method (GOD-PAP,\nBoehringer Mannheim, GmbH Germany). Insulin was determined by radioimmunoassay with a guinea pig antiporcine insulin antibody (PNILGP4, Novo Nordisk, Bagsvaerd, Denmark), and mono-[125I]-(Tyr A14) labelled human insulin (Novo Nordisk) as tracer and rat insulin (Novo Nordisk) as standard. We separated free and bound radioactivity using ethanol (Heding, 1972). Interassay and intra-assay variation was below 10%. […] Triglycerides was determined using colorimetric kits (Roche Diagnostics, Boehringer Mannheim, GmbH Germany). The fasting glucose-insulin index was calculated as the product of plasma insulin and plasma glucose ([plasma insulin ng/ml]×[plasma glucose mmol/l]/1000) and compared between groups as relative units (Chang et al., 2005)."}, "GLUT2": {"system": "GLUT2", "assay": "Relative real time RT-PCR in islets of KKAy mice (Example 3): GLUT2", "format": "in vivo", "conditions": "9 weeks", "description": "Islets were isolated by the collagenase digestion technique. In brief, the animals were anesthetized with pentobarbital (50 mg/kg intraperitoneally) and midline laparotomy was performed. The pancreas was retrogradely filled with 3 mL ice-cold Hanks balanced salt solution (([HBSS] Sigma Chemical, St Louis, Mo.) supplemented with 0.3 mg/ml collagenase Boehringer Mannheim GmbH, Germany). The pancreas was subsequently removed and incubated for 19 minutes at 37° C. After rinsing in HBSS, the islets were handpicked under a stereomicroscope and immediately transferred to a tubes containing 1 ml Trizol (Gibco/Invitrogene, Calsbad, Calif., USA). The islets isolated from the NMRI mice were incubated overnight at 37° C. and 95% normal atmosphere/5% CO2 in 10 ml RPMI 1640 containing 11.1 mmol/L glucose supplemented with penicillin G and 100 μg/mL streptomycin (all Gibco/Invitrogene, Calsbad, Calif., USA).\nFor each group, islets from 3-4 mice (180-200 islets) were pooled in 1 ml Trizol reagent (Gibco/lnvitrogene, Calsbad, Calif., USA) before RNA purification. Total RNA was extracted according to the manufactures' instructions. RNA was quantified by measuring absorbance at 260 and 280 nm. The quality of the RNA was checked by the Agilent 2100 bioanalyzer (Agilent, Santa Clara, USA). […]"}, "Pax6": {"system": "Pax6", "assay": "Affymetrix gene chip analysis of KKAy islets: Pax6", "format": "in vivo, mice", "conditions": "ISV vs. KKAy control islets, 9 weeks", "description": "cRNA preparation and in vitro transcription: In total 6 Affymetrix arrays MOE430 2.0 probe array cartridge were used i.e. for analysis of 3 replicas for the KKAy control group and the ISV group, respectively. Each of the 6 samples consisted of pooled RNA from 3-4 KKAy mice. Preparation of target for hybridization was prepared from 340 ng of total RNA using MessageAmp™ II aRNA Amplification Kits (Ambion), according to the manufacturers instructions. Arrays were hybridised and scanned as described elsewhere (Kruhoffer et al., 2005)."}, "[1]": {"conditions": "ISV group of KKAy mice, age 5 weeks, before treatment"}, "[2]": {"conditions": "KKAy mice, 20 mg/kg BW in diet, after 9-week treatment"}}}
{"compound": "C[C@@]12CC[C@@H]3[C@@](CC[C@H]4[C@@]3(C)CCC[C@@]4(C)C(=O)O)(CC1=O)C2", "note": "(single isomer, unassigned; ent-16) [ISV, ent-16-ketobeyeran-19-oic acid]", "values": [{"measurement": "reduction of plasma insulin increase compared to the KKAy control", "setting": "KKAy-mice; 9 weeks treatment", "result": 62, "unit": "%"}, {"measurement": "reduction of the plasma TG increase in the KKAy", "setting": "KKAy-mice; 9 weeks treatment", "result": 74, "unit": "%"}, {"measurement": "glucose-insulin index at start of study", "setting": "KKAy-mice; ISV group of KKAy mice before treatment, product of plasma insulin and plasma glucose", "result": 8.6, "unit": "unit"}, {"measurement": "plasma glucose at start of study", "setting": "KKAy-mice; [1]", "result": 8.9, "unit": "mmol/L"}, {"measurement": "plasma insulin at start of study", "setting": "KKAy-mice; [1]", "result": 1.0, "unit": "ng/mL"}, {"measurement": "plasma TG level at age 5 week", "setting": "KKAy-mice; ISV group of KKAy mice, before treatment", "result": 1.25, "unit": "mmol/L"}, {"measurement": "reduction in plasma glucose compared to the increase for the KKAy", "setting": "KKAy-mice; KKAy at 5 weeks as baseline, 9 weeks treatment", "result": 59, "unit": "%"}, {"measurement": "plasma TG level at age 14 weeks", "setting": "KKAy-mice; KKAy mice after 9 weeks treatment", "result": 2.02, "unit": "mmol/L"}, {"measurement": "glucose-insulin index at the end of the study", "setting": "KKAy-mice; KKAy mice after 9 weeks treatment, product of plasma insulin and plasma glucose", "result": 1596, "unit": "unit"}, {"measurement": "plasma glucose at the end of the study", "setting": "KKAy-mice; [2]", "result": 16.2, "unit": "mmol/L"}, {"measurement": "plasma insulin at the end of the study", "setting": "KKAy-mice; [2]", "result": 80.9, "unit": "ng/mL"}, {"measurement": "fold increase of plasma glucose during study period", "setting": "KKAy-mice; KKAy mice, 20 mg/kg BW, 9 weeks, KKAy control 2.8 fold", "result": 1.8, "unit": "fold"}, {"measurement": "fold increase of plasma insulin during study period", "setting": "KKAy-mice; KKAy mice, 20 mg/kg BW, 9 weeks, KKAy control 266 fold", "result": 81, "unit": "fold"}, {"measurement": "increase of TG level at age 14 weeks compared to age 5 week", "setting": "KKAy-mice; KKAy mice, 9 weeks treatment, KKAy control 192%", "result": 62, "unit": "%"}, {"measurement": "reduction in weight at the end of the 9 week treatment period", "setting": "KKAy-mice; KKAy mice, vs. KKAy control", "result": 13, "unit": "%"}, {"measurement": "body weight after 5 weeks", "setting": "KKAy-mice; KKAy mice, KKAy control 38.6 g", "result": 29.9, "unit": "g"}, {"measurement": "body weight after 9 weeks treatment", "setting": "KKAy-mice; KKAy mice, KKAy control 41.6 g", "result": 36.3, "unit": "g"}, {"measurement": "up regulation of the GLUT2 gene transcript", "setting": "GLUT2; RT-PCR", "result": "more than 3 fold"}, {"measurement": "increased expression of GLUT2, ISV group vs. control group", "setting": "GLUT2; normalized to 18S rRNA", "result": 201, "unit": "%"}, {"measurement": "array: increased expression in Pax6", "setting": "Pax6", "result": 1.9, "unit": "fold"}]}
